In ChEMBL document CHEMBL1201862, “PubChem BioAssay data set” (2004):
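Cells were grown in 96-well plates and exposed to each compound for 48 hours at five concentrations; endpoints were interpolated linearly between bracketing concentrations, or set to the highest concentration if not reached. Abbreviation: GI50, concentration required for 50% inhibition of growth.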 Activity calls are given as the source filed them. Rule as the data show it: active = GI50 up to about 1.1 µM and inactive = higher.

Experiments:
Test in all cases: NCI anticancer screen, dose series, 48 h
K562 = test system: K562
HCC 2998 = test system: HCC 2998
EKVX = test system: EKVX
UACC-257 = test system: UACC-257
MCF7 = test system: MCF7
RXF 393 = test system: RXF 393
MDA-MB-231 = test system: MDA-MB-231
CAKI-1 = test system: CAKI-1
SK-MEL-5 = test system: SK-MEL-5
SK-MEL-28 = test system: SK-MEL-28
SNB-19 = test system: SNB-19
SW-620 = test system: SW-620
MDA-N = test system: MDA-N
NCI-H460 = test system: NCI-H460
OVCAR-8 = test system: OVCAR-8
NCI/ADR-RES = test system: NCI/ADR-RES

Compound | GI50 (K562) | GI50 (HCC 2998) | GI50 (EKVX) | GI50 (UACC-257) | GI50 (MCF7) | GI50 (RXF 393) | GI50 (MDA-MB-231) | GI50 (CAKI-1) | GI50 (SK-MEL-5) | GI50 (SK-MEL-28) | GI50 (SNB-19) | GI50 (SW-620) | GI50 (MDA-N) | GI50 (NCI-H460) | GI50 (OVCAR-8) | GI50 (NCI/ADR-RES)
Nc1nc(N)c2c(-c3ccccc3)ccnc2n1 | > 100 µM (inactive) | > 100 µM (inactive) | 18.5 µM (inactive) | > 100 µM (inactive) | > 100 µM (inactive) | > 100 µM (inactive) | > 100 µM (inactive) | > 100 µM (inactive) | > 100 µM (inactive) | 40.5 µM (inactive) | > 100 µM (inactive) | 39.7 µM (inactive) | > 100 µM (inactive) | > 100 µM (inactive) |  | 
NC1CC(=O)c2cc(Cl)sc21 (centres undefined) | 0.929 µM (active) |  | > 100 µM (inactive) | > 100 µM (inactive) |  | > 100 µM (inactive) | > 100 µM (inactive) | > 100 µM (inactive) | > 100 µM (inactive) | > 100 µM (inactive) | > 100 µM (inactive) | > 100 µM (inactive) | > 100 µM (inactive) | > 100 µM (inactive) | > 100 µM (inactive) | > 100 µM (inactive)
NNC(=S)N1CCN(C(=S)NN)CC1 |  | > 100 µM (inactive) | > 100 µM (inactive) | > 100 µM (inactive) |  |  | > 100 µM (inactive) | > 100 µM (inactive) | > 100 µM (inactive) | > 100 µM (inactive) | > 100 µM (inactive) | > 100 µM (inactive) | > 100 µM (inactive) | > 100 µM (inactive) |  | 
CC(C)NC(=O)OCc1c(COC(=O)NC(C)C)n(C)c2c1ccc1cc(Cl)c(Cl)cc12 | 4.44 µM (inactive) |  | 14.8 µM (inactive) | 15.7 µM (inactive) | 3.28 µM (inactive) | 12.2 µM (inactive) | 12.7 µM (inactive) | 2.09 µM (inactive) | 16.5 µM (inactive) |  | 13.4 µM (inactive) | 11.3 µM (inactive) | 13.6 µM (inactive) | 3.41 µM (inactive) | 11.6 µM (inactive) | 15.9 µM (inactive)
c1ccc2c(c1)CCN1CCc3ccccc3C1C2 (centres undefined) | 31.2 µM (inactive) | 31.4 µM (inactive) | 40.4 µM (inactive) | 62.4 µM (inactive) | > 100 µM (inactive) |  | 42.3 µM (inactive) | 47.1 µM (inactive) | 17.7 µM (inactive) | 59.6 µM (inactive) | 82.8 µM (inactive) | 64.6 µM (inactive) | 12.4 µM (inactive) | 44.6 µM (inactive) | 81.1 µM (inactive) | 65.9 µM (inactive)
CCCCCCCCCCCCCCCCCC(=O)Nc1ccn(C2CCC(COP(=O)(O)O)O2)c(=O)n1 (centres undefined) | > 100 µM (inactive) | > 100 µM (inactive) | > 100 µM (inactive) | > 100 µM (inactive) | > 100 µM (inactive) | > 100 µM (inactive) | > 100 µM (inactive) | > 100 µM (inactive) | > 100 µM (inactive) | > 100 µM (inactive) | > 100 µM (inactive) | > 100 µM (inactive) |  |  | > 100 µM (inactive) | > 100 µM (inactive)
c1cc(-c2cnc(-c3ccc4c(c3)CCCO4)o2)ccn1 | 5.05 µM (inactive) |  | 17.7 µM (inactive) | 15.1 µM (inactive) | 14.7 µM (inactive) | 13.5 µM (inactive) | 16.2 µM (inactive) | 15.6 µM (inactive) | 12.6 µM (inactive) | 18.1 µM (inactive) | 11.9 µM (inactive) |  | 14.7 µM (inactive) |  | 13.8 µM (inactive) | 17.1 µM (inactive)
CC1=CC2=C(C#N)C(=O)OC2(C)C(c2ccccc2)C1 (centres undefined) | 68.7 µM (inactive) |  | > 100 µM (inactive) | > 100 µM (inactive) |  |  | > 100 µM (inactive) |  |  | > 100 µM (inactive) | > 100 µM (inactive) | > 100 µM (inactive) | > 100 µM (inactive) | > 100 µM (inactive) | > 100 µM (inactive) | 72.1 µM (inactive)
COc1c2c(cc3c1C(=O)c1c(O)cccc1C3=O)CC(O)CC2 (centres undefined) | > 100 µM (inactive) | > 100 µM (inactive) | 29.8 µM (inactive) | > 100 µM (inactive) | > 100 µM (inactive) |  | 21.6 µM (inactive) | > 100 µM (inactive) | > 100 µM (inactive) | > 100 µM (inactive) | 19.7 µM (inactive) | > 100 µM (inactive) | > 100 µM (inactive) | > 100 µM (inactive) | 40.5 µM (inactive) | 35.8 µM (inactive)
C[C@@H]1CC[C@]2(C(=O)O)CC[C@]3(C)C(=CC[C@@H]4[C@@]5(C)CC[C@H](O)C(C)(C)[C@@H]5CC[C@]43C)[C@@H]2[C@]1(C)O [POMOLIC ACID] | 6.49 µM (inactive) | 15 µM (inactive) | 18.3 µM (inactive) | 5.42 µM (inactive) | 20 µM (inactive) |  | 8.79 µM (inactive) | 14 µM (inactive) |  | 13.6 µM (inactive) | 15.7 µM (inactive) | 21.9 µM (inactive) |  | 5.41 µM (inactive) | 20.2 µM (inactive) | 15.5 µM (inactive)
